Reference: PMC5908784, “Extracellular loops 2 and 3 of the calcitonin receptor selectively modify agonist binding and efficacy” (Biochemical Pharmacology, 2018)
Substitutions are numbered along the chain they refer to. Where no end group is shown, it is not given here.

Experiments:
Assay in all cases: Homologous whole cell competition binding
Details in all cases: homologous competition of 125I-sCT(8-32), whole cells, mean ± S.E.M., SEM
hCTR L298A = biological target: T1, hCTR L298A (Homo sapiens, UniProt P30988, L298A)
T1 construct: c-Myc (N); expressed in transfected cells
T1 sequence (P30988 25-474 L298A): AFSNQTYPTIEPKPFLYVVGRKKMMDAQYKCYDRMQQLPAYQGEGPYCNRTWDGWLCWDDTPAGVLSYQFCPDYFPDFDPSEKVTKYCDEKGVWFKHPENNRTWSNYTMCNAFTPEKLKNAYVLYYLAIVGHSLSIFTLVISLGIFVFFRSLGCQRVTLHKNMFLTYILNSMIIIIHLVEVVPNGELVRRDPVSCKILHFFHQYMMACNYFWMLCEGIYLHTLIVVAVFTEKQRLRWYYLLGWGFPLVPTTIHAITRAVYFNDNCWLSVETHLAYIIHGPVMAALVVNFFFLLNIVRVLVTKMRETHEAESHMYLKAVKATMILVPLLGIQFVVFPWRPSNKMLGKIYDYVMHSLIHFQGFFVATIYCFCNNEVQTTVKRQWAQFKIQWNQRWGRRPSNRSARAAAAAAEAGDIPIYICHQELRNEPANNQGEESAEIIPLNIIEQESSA
Summary of the method: (§1)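 Homologous competition, intact cells, 4 °C overnight; tracer ^125I-sCT(8-32) 25–100 pM (two concs) vs cold sCT(8-32); NSB 1 μM cold peptide; γ counter; 3-param logistic IC50 → Cheng-Prusoff pKi; Bmax also estimated.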

hCTR L291A = biological target: T2, hCTR L291A (Homo sapiens, UniProt P30988, L291A)
T2 construct: expressed in transfected cells
T2 sequence (P30988 25-474 L291A): T1 sequence (P30988 25-474 L298A) with L267A, A274L
Summary of the method: as §1

hCTR T295A = biological target: T3, hCTR T295A (Homo sapiens, UniProt P30988, T295A)
T3 construct: c-Myc (N); expressed in transfected cells
T3 sequence (P30988 25-474 T295A): T1 sequence (P30988 25-474 L298A) with T271A, A274L
Summary of the method: as §1

hCTR V283A = biological target: T4, hCTR V283A (Homo sapiens, UniProt P30988, V283A)
T4 construct: expressed in transfected cells
T4 sequence (P30988 25-474 V283A): T1 sequence (P30988 25-474 L298A) with V259A, A274L
Summary of the method: as §1

## VLGKLSQELHKLQTYPRTNTGSGTP-NH2 [sCT(8-32)]
hCTR L298A
  Ki: 0.148 nM
hCTR L291A
  Ki: 1.74 nM
hCTR T295A
  Ki: 0.0501 nM
hCTR V283A
  Ki: 0.214 nM
